Assays:
[1] = molecular target: T1, CDK7 (Homo sapiens, UniProt P50613); test: CDK7 enzyme inhibition test; type: biochemical; conditions: Ki=IC50/(1+S/Km); 33P bound to MBP, [γ-33P]ATP, 30° C. for 20 minutes; read-out: Ki value of CDK7 inhibitory activity
T1 construct: purchased Carna Biosciences, Inc. 04-108
Experimental: CDK7 Enzyme Inhibition Test
The preparation of a buffer solution was performed by mixing a N-2-hydroxyethylpiperazine-N′-2-ethanesulfonic acid buffer solution (HEPES buffer solution) (pH 7.4), dithiothreitol (DTT), Triton X-100, and magnesium chloride (MgCl2). A 500 μM [γ-^33P]ATP solution was used by diluting a 10 mM ATP solution and a commercially available [γ-^33P]ATP solution (manufactured by PerkinElmer, Inc., Code No. NEG-302H) with the buffer solution. A CDK7 solution was used by diluting commercially available CDK7 (manufactured by Carna Biosciences, Inc., Catalog No. 04-108) with the buffer solution. A substrate solution was used by diluting myelin basic protein (MBP) with the buffer solution. As for the preparation of a reaction solution, the buffer solution, the 500 μM [γ-^33P]ATP solution, the CDK7 solution, and the substrate solution were mixed at 4° C. to obtain a reaction solution.
CDK7 enzyme reaction was performed by adding 5 μL of a test compound solution prepared with 10% dimethyl sulfoxide (DMSO)/90% injectable distilled water, and 45 μL of the reaction solution to a 1.5 mL microtube at 4° C. and reacting in the microtube at 30° C. for 20 minutes in a water bath incubator. After the reaction, a 10% aqueous trichloroacetic acid (TCA) solution was added to each microtube while cooled to 4° C., and mixed to terminate the reaction. The resultant was left standing at 4° C. for 10 minutes and then centrifuged in a centrifuge, and the supernatant was discarded. Next, a 2% aqueous TCA solution was added, mixed, and then centrifuged in a centrifuge, and the supernatant was discarded. This washing operation was performed twice. After the washing, precipitates were dissolved in a 1 N aqueous sodium hydroxide (NaOH) solution, and the energy quantity (radioactivity) of the reaction product was measured with a liquid scintillation counter.
The calculation of the inhibitory activity of the test compound against CDK7 was performed as a test compound concentration inhibiting 50% of the amount of ^33P bound to MBP (IC50 value) by using EXSUS (version 8.0.0 or version 8.0.1, manufactured by CAC Exicare Corp.).
(§1) The calculation of a Ki value was performed according to the following calculation expression. S means the concentration of ATP contained in the reaction solution, and Km means a Michaelis-Menten constant. Ki=IC50/(1+S/Km)

[2] = test system: human large intestine cancer cell line (HCT-116); test: Human large intestine cancer (HCT-116) cell growth inhibition test; type: cell-based; conditions: 72 h, HCT-116, culture for 3 days, sulforhodamine B absorbance
Experimental: Human Large Intestine Cancer (HCT-116) Cell Growth Inhibition Test
The measurement of a human large intestine cancer cell growth inhibitory effect was carried out by modifying the method of Simak et al. (Cancer Research, 69, 6208 (2009)).
A human large intestine cancer cell line (HCT-116) (manufactured by DS Pharma Biomedical Co., Ltd., Cat. No. EC91091005) was cultured in McCoy's 5a (manufactured by GIBCO/Thermo Fisher Scientific, Inc., REF. 16600-082) medium containing 10% FBS (manufactured by GIBCO/Thermo Fisher Scientific, Inc., REF. 10082-147) and 1% penicillin/streptomycin/amphotericin B (manufactured by GIBCO/Thermo Fisher Scientific, Inc., REF. 15240-096) and inoculated at 1.0×10^3 cells/well in a 96-well plate (manufactured by Corning Inc., REF. 353072). After overnight culture in a carbon dioxide incubator, it was replaced with a fresh McCoy's 5a medium containing 10% FBS on the next day, and a test compound dissolved in DMSO (manufactured by Wako Pure Chemical Industries, Ltd., Code No. 043-07216) (final DMSO concentration: 0.1%) was added and left standing in a carbon dioxide incubator. After culturing for 3 days, the absorbance of each well was measured by using In Vitro Toxicology Assay Kit Sulforhodamine B based (manufactured by Sigma-Aldrich Co. LLC., Pcode 1001910706).
The rate of inhibition of cell growth at each concentration was calculated from the test compound concentration and the absorbance of sulforhodamine B, and the concentration of the test compound necessary for inhibiting 50% of cell growth (IC50 value) was calculated by using EXSUS (version 8.0.0 or version 8.0.1, manufactured by CAC Exicare Corp.).

[3] = molecular target: T2, CDK2 (Homo sapiens, UniProt P24941); test: CDK2 enzyme inhibition test; type: biochemical; conditions: Ki=IC50/(1+S/Km); 33P bound to MBP, [γ-33P]ATP, 30° C. for 20 minutes; read-out: Ki value of CDK2 inhibitory activity
T2 construct: purchased Invitrogen Corp. PV3267
Experimental: CDK2 Enzyme Inhibition Test
The preparation of a buffer solution was performed by mixing a HEPES buffer solution (pH 7.4), DTT, Triton X-100, and MgCl2. A 500 μM [γ-^33P]ATP solution was used by diluting a 10 mM ATP solution and a commercially available [γ-^33P]ATP solution (manufactured by PerkinElmer, Inc., Code No. NEG-302H) with the buffer solution. A CDK2 solution was used by diluting commercially available CDK2 (manufactured by Invitrogen Corp., Catalog No. PV3267) with the buffer solution. A substrate solution was used by diluting MBP with the buffer solution. As for the preparation of a reaction solution, the buffer solution, the 500 μM [γ-^33P]ATP solution, the CDK2 solution, and the substrate solution were mixed at 4° C. to obtain a reaction solution.
CDK2 enzyme reaction was performed by adding 5 μL of a test compound solution prepared with 10% DMSO/90% injectable distilled water, and 45 μL of the reaction solution in a 1.5 mL microtube at 4° C. and reacting in the microtube at 30° C. for 20 minutes in a water bath incubator. After the reaction, a 10% aqueous TCA solution was added to each microtube while cooled to 4° C., and mixed to terminate the reaction. The resultant was left standing at 4° C. for 10 minutes and then centrifuged in a centrifuge, and the supernatant was discarded. Next, a 2% aqueous TCA solution was added, mixed thereto, and then centrifuged in a centrifuge, and the supernatant was discarded. This washing operation was performed twice. After the washing, precipitates were dissolved in a 1 N aqueous NaOH solution, and the radioactivity was measured with a liquid scintillation counter.
The calculation of the inhibitory activity of the test compound against CDK2 was performed as a test compound concentration inhibiting 50% of the amount of ^33P bound to MBP (IC50 value) by using EXSUS (version 8.0.0 or version 8.0.1, manufactured by CAC Exicare Corp.).
as §1

T1 sequence (P50613 whole entry): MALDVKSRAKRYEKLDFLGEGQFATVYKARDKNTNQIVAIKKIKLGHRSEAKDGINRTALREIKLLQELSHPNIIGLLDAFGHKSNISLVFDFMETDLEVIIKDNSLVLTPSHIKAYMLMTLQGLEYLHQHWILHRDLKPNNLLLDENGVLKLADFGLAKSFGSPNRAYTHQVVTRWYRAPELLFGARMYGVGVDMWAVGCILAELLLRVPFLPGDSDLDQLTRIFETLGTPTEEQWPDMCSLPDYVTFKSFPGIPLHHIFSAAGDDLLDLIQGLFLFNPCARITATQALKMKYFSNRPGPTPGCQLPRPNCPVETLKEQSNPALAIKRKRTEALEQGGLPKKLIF
T1 sequence (P51946 whole entry partner): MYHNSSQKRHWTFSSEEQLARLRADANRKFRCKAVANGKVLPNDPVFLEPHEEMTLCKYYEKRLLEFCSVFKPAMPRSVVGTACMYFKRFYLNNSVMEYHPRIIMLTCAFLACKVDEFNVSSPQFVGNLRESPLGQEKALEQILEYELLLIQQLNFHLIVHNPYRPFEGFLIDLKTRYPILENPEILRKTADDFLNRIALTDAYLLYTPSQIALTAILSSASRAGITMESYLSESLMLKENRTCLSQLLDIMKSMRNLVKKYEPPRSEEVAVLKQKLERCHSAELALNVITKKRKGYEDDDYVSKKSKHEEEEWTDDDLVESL
T1 sequence (P51948 whole entry partner): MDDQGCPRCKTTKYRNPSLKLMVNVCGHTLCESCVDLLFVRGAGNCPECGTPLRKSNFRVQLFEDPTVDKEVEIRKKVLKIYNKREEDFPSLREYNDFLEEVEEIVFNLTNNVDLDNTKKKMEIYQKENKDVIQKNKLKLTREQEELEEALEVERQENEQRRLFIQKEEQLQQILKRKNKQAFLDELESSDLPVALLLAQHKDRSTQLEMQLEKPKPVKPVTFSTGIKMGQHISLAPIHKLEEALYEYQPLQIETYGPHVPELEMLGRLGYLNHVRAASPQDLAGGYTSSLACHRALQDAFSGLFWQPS

Row | Structure (SMILES) | Ki [1] [nM] | IC50 [2] [nM] | Ki [3] [nM]
1 | C[C@@H](Oc1ccccc1)C(=O)N1Cc2c(NC(=O)C3([Si](C)(C)C)CC3)n[nH]c2C1(C)C [III-1140, (R)—N-[6,6-Dimethyl-5-(2-phenoxypropanoyl)-1,4,5,6-tetrahydropyrrolo[3,4-c]pyrazol-3-yl]-1-(trimethylsilyl)cyclopropanecarboxamide] | ≤ 50 | ≤ 500 | 
2 | CC(C)C(O)CNC(=O)N1Cc2c(NC(=O)C3([Si](C)(C)C)CCC3)n[nH]c2C1(C)C (stereo not shown) [IV-446, N-(2-Hydroxy-3-methylbutyl)-6,6-dimethyl-3-[1-(trimethylsilyl)cyclobutanecarboxamido]-4,6-dihydropyrrolo[3,4-c]pyrazole-5(1H)-carboxamide] | ≤ 50 | ≤ 500 | 
3 | COCC(C(=O)N1Cc2c(NC(=O)C3([Si](C)(C)C)CCC3)n[nH]c2C1(C)C)c1ccccc1 (stereo not shown) [IV-634, N-[5-(3-Methoxy-2-phenylpropanoyl)-6,6-dimethyl-1,4,5,6-tetrahydropyrrolo[3,4-c]pyrazol-3-yl]-1-(trimethylsilyl)cyclobutanecarboxamide] | ≤ 50 | ≤ 500 | 
4 | CC1(C)c2[nH]nc(NC(=O)C3([Si](C)(C)C)CCC3)c2CN1C(=O)NC(c1ccccc1)C(F)(F)CO (racemic) [IV-362, N-(2,2-Difluoro-3-hydroxy-1-phenylpropyl)-6,6-dimethyl-3-[1-(trimethylsilyl)cyclobutanecarboxamido]-4,6-dihydropyrrolo[3,4-c]pyrazole-5(1H)-carboxamide] | ≤ 50 | ≤ 500 | 
5 | CC(C)(CO)C(NC(=O)N1Cc2c(NC(=O)C3([Si](C)(C)C)CCC3)n[nH]c2C1(C)C)c1ccccc1F (stereo not shown) [IV-890, N-[1-(2-Fluorophenyl)-3-hydroxy-2,2-dimethylpropyl]-6,6-dimethyl-3-[1-(trimethylsilyl)cyclobutanecarboxamido]-4,6-dihydropyrrolo[3,4-c]pyrazole-5(1H)-carboxamide] |  | ≤ 500 | ≥ 1000
6 | CC1(C)c2[nH]nc(NC(=O)C3([Si](C)(C)C)CCC3)c2CN1C(=O)[C@H](CO)c1ccccc1 [IV-633, (S)—N-[5-(3-Hydroxy-2-phenylpropanoyl)-6,6-dimethyl-1,4,5,6-tetrahydropyrrolo[3,4-c]pyrazol-3-yl]-1-(trimethylsilyl)cyclobutanecarboxamide] | ≤ 50 | ≤ 500 | 

The next lines start with results.

Row | Ki [1] [nM] | IC50 [2] [nM] | Structure (SMILES) | Ki [3] [nM]
7 | ≤ 50 | ≤ 500 | COCC(Oc1ccccc1)C(=O)N1Cc2c(NC(=O)C3([Si](C)(C)C)CCC3)n[nH]c2C1(C)C (stereo not shown) [IV-1348, N-[5-(3-Methoxy-2-phenoxypropanoyl)-6,6-dimethyl-1,4,5,6-tetrahydropyrrolo[3,4-c]pyrazol-3-yl]-1-(trimethylsilyl)cyclobutanecarboxamide] | 
8 | ≤ 50 | ≤ 500 | Cc1ccccc1[C@@H](CO)NC(=O)N1Cc2c(NC(=O)C3([Si](C)(C)C)CCC3)n[nH]c2C1(C)C [IV-1067, (S)—N-[2-Hydroxy-1-(o-tolyl)ethyl]-6,6-dimethyl-3-[1-(trimethylsilyl)cyclobutanecarboxamido]-4,6-dihydropyrrolo[3,4-c]pyrazole-5(1H)-carboxamide] | 
9 | ≤ 50 | ≤ 500 | CC1(C)c2[nH]nc(NC(=O)C3([Si](C)(C)C)CCC3)c2CN1C(=O)C(CO)Oc1ccccc1 (stereo not shown) [IV-1330, N-[5-(3-Hydroxy-2-phenoxypropanoyl)-6,6-dimethyl-1,4,5,6-tetrahydropyrrolo[3,4-c]pyrazol-3-yl]-1-(trimethylsilyl)cyclobutanecarboxamide] | 
10 | ≤ 50 | ≤ 500 | CC(Oc1cccnc1)C(=O)N1Cc2c(NC(=O)C3([Si](C)(C)C)CCC3)n[nH]c2C1(C)C (stereo not shown) [IV-1274, N-{6,6-Dimethyl-5-[2-(pyridin-3-yloxy)propanoyl]-1,4,5,6-tetrahydropyrrolo[3,4-c]pyrazol-3-yl}-1-(trimethylsilyl)cyclobutanecarboxamide] | 
11 | ≤ 50 | ≤ 500 | CO[C@H](C(=O)N1Cc2c(NC(=O)C3([Si](C)(C)C)CCC3)n[nH]c2C1(C)C)c1ccccc1 [IV-1176, (S)—N-[5-(2-Methoxy-2-phenylacetyl)-6,6-dimethyl-1,4,5,6-tetrahydropyrrolo[3,4-c]pyrazol-3-yl]-1-(trimethylsilyl)cyclobutanecarboxamide] | 
12 | ≤ 50 | ≤ 500 | CC1(C)c2[nH]nc(NC(=O)C3([Si](C)(C)C)CCC3)c2CN1C(=O)N[C@H](CO)Cc1ccccc1 [IV-862, (S)—N-(1-Hydroxy-3-phenylpropan-2-yl)-6,6-dimethyl-3-[1-(trimethylsilyl)cyclobutanecarboxamido]-4,6-dihydropyrrolo[3,4-c]pyrazole-5(1H)-carboxamide] | 
13 | ≤ 50 | ≤ 500 | COC(C(=O)N1Cc2c(NC(=O)C3([Si](C)(C)C)CCC3)n[nH]c2C1(C)C)c1ccc(F)cc1 (stereo not shown) [IV-1427, N-{5-[2-(4-Fluorophenyl)-2-methoxyacetyl]-6,6-dimethyl-1,4,5,6-tetrahydropyrrolo[3,4-c]pyrazol-3-yl}-1-(trimethylsilyl)cyclobutanecarboxamide] | 
14 | ≤ 50 | ≤ 500 | COC(C)C(=O)N1Cc2c(NC(=O)C3([Si](C)(C)C)CCC3)n[nH]c2C1(C)C (stereo not shown) [IV-1241, N-[5-(2-Methoxypropanoyl)-6,6-dimethyl-1,4,5,6-tetrahydropyrrolo[3,4-c]pyrazol-3-yl]-1-(trimethylsilyl)cyclobutanecarboxamide] | 
